Assay results as given in patent US20210199657A1, “I[…] AND USE THEREOF” (priority 2016, published 2021).

How the values were obtained:
[1] = test system: antibodies contained in pools of serums from patients suffering from active tuberculosis; experiment: ELISA screening of peptides on pools of serums from patients with active TB (ratio R); details: for ratio R: for 3 of the 4 serums tested
Method: In order to determine which peptides are of interest, a ratio R is calculated, the ratio R being the normalized measurement value of the immune complex formation, relative to the respective background noises of the serums and components used to detect the immune complexes, to, or divided by, the normalized measurement value obtained from the sample derived from a healthy individual relative to the respective background noises of the serums and components used to detect the immune complexes.
In order to determine the immunogenicity of the peptides, they are tested using the following ELISA test:
The peptides are fixed on a Maxisorp (high binding) plate: Incubation overnight at 4° C., concentration of the protein in μg/ml from 20 to 50.
The wells are rinsed with 300 μL of phosphate buffered saline (PBS).
The “wells” are blocked for 2 hours at ambient temperature (19° C.-25° C.) with 200 μL of bovine serum albumin (BSA) 2% and 0.01% of Tween 20.
The wells are rinsed with 200 μL of PBS.
One deposits 100 μL of serums from patients suffering from active TA diluted at 1/100th in blocking solution and incubates for one hour at 37° C.
Perform 3 washes (300 μL) PBS-Tween 20 (0.05%).
One adds 100 μL of antibodies conjugated with peroxidase, diluted at 1/20,000 with blocking solution and incubates for 1 h at 37° C.
One adds 100 μL of 3,3′,5,5′-tetramethylbenzidine (TMB) and incubates for 20 minutes in the dark.
One deposits 50 μL of sulfuric acid at 1N.
A spectrophotometer is used at 450 nm to read the quantity of TMB converted by the peroxidase (indicative of the formation of an immune complex between the peptides and the antibodies contained in the serum).

[2] = test system: negative pool (serum of individuals not suffering from tuberculosis); experiment: ELISA of peptides on negative pool of samples; assay type: binding, human; details: 450 nm

Row | Sequence | ratio R [1] | OD Negative pool [2] | ratio ([1]; for both pools of patients) | Ratio Positive pool 1 ([1]; positive pool 1) | Ratio Positive pool 2 ([1]; positive pool 2)
1 | TAACPDAEWFARGR (TAACPDAEVVFARGR; derived from Rv2301) [Peptide Z1] | greater than 1.5 | – | – | – | –
2 | DADARVAVPRRDDL (DADARVAVPGRRDDL; derived from LipW) [Peptide W7] | greater than 1.5 | – | – | – | –
3 | CNNGDPICSDGNRWR (derived from Rv3452) [Peptide D7] | greater than 1.5 | 0.303 | > 1.5 | 1.7 | 1.7
